Publication PMC5038265 (Antimicrobial Agents and Chemotherapy, 2016)
Converted amounts (≈) assume the structure as drawn. Read-outs that look alike come from different tables or passages of the source.

Key:
HepG2 cells = experiment: HepG2 cell viability (Janus green staining); format: cell-based; details: Homo sapiens, 168 h, HepG2, 7 days, read-out: Mean EC50 ± SD Cell viability
Experimental: (§1) The human liver carcinoma-derived HepG2 cell line was obtained from the ATCC (ATCC HB-8065). HepG2 cells were grown in Dulbecco's modified Eagle's medium containing 10% fetal calf serum, 1 mM sodium pyruvate, 0.1 mM essential amino acids, and 50 U/ml penicillin-streptomycin at 37°C with 5% CO2. HepG2 cells were seeded into 96-well plates at 3,000 cells/200 μl/well in cell culture medium. Cells were then grown in the presence of the compounds at 37°C in 10% CO2 for 7 days in at least duplicate concentrations, with the medium and compounds being replaced on the fourth day. After 7 days, the levels of SDHA (subunit A of the succinate dehydrogenase complex) and COX1 (cytochrome c oxidase) were determined by using the MitoSciences In-Cell enzyme-linked immunosorbent assay (ELISA) kit. Janus green staining was used to determined cell viability after 7 days (In-Cell ELISA kit, catalog number MS643).

SDHA in HepG2 cells = experiment: Mitochondrial protein synthesis assay, SDHA level; format: cell-based; details: Homo sapiens, 168 h; HepG2, 7 days; read-out: Mean EC50 ± SD SDHA
Experimental: as §1

COX1 in HepG2 cells = experiment: Mitochondrial protein synthesis assay, COX1 level; format: cell-based; details: Homo sapiens, 168 h; HepG2, 7 days; read-out: Mean EC50 ± SD COX1
Experimental: as §1

M. tuberculosis H37Rv = experiment: MIC for M. tuberculosis H37Rv (resazurin/alamarBlue); format: cell-based, Mycobacterium tuberculosis; details: for MIC: Mycobacterium tuberculosis, H37RV, read-out: MIC M.tb H37Rv; for improvement of MIC values over compound 1: M. tuberculosis H37Rv
M. tuberculosis LeuRS = M. tuberculosis LeuRS (Mycobacterium tuberculosis, UniProt P9WFV1); experiment: biochemical; parameters: species or system M. tuberculosis H37Rv
Vero cells = experiment: In vitro cytotoxicity assay (MTT); format: cell-based, African green monkey; details: Chlorocebus sabaeus, 72 h
Experimental: Vero epithelial cells (from African green monkey; ATCC CCL-81) were cultured in Dulbecco's modified Eagle's medium (DMEM) supplemented with 10% fetal bovine serum (FBS) and maintained in a humidified incubator (37°C in 5% CO2). Cells were dislodged with a cell scraper, collected by centrifugation, resuspended in fresh medium at ∼10^6 cells/ml, dispensed into 96-well microtiter plates ([…]), and incubated for 18 h at 37°C. Twofold serial dilutions of test compounds in DMEM with FBS were subsequently added, and cells were incubated for another 72 h. In triplicate studies, the cytopathic effects of compounds were evaluated colorimetrically by using the 3-(4,5-dimethyl-2-thiazolyl)-2,5-diphenyl-2H-tetrazolium bromide (MTT) cell proliferation assay (ATCC). IC50 data were obtained from dose-response curves plotted by using GraphPad Prism 5.

in vivo = details: for AUC(0-inf) / Cmax / MRT / Vd / clearance / half-life / AUC(0-t) / Tmax / bioavailability: in vivo; for α-t1/2 % AUC / β-t1/2 % AUC: i.v.
Experimental: Mouse pharmacokinetic studies were conducted by using female CD-1 mice for compounds 1, 11, and 12, while BALB/c mice were used for compound 13. Mouse body weights were 19 to 28 g, and on the morning of dosing, mice were split randomly into 3 dosing groups to receive the test article by either intravenous (i.v.) tail vein injection or oral (p.o.) gavage. After dosing, blood samples were collected via cardiac puncture at specific time points (n = 3 mice/time point) through 24 h (K2EDTA as an anticoagulant) and processed for plasma. Antibiotic concentrations in the plasma samples were analyzed by liquid chromatography-tandem mass spectrometry (LC-MS/MS). The LC-MS/MS analysis was conducted by using analyte/internal standard peak area methods. The internal standard was AN3365 ([21]), and the instrument used was an API4000 QTRAP instrument (AB Sciex). The limit of quantitation (LOQ) was 1 or 2 ng/ml. Pharmacokinetic analyses of the mean plasma concentration-time profiles were performed by using WinNonlin Pro version 5.2. A compartmental model was used for the data for i.v. dosing, and a noncompartmental model was used for the data for p.o. dosing. […] Compounds 1 and 13 were formulated in saline (0.9% [wt/vol] NaCl) at 7.5 mg/ml, and the pH was adjusted to >5 by the addition of NaOH. Compound 11 was formulated to 6.5 mg/ml in water-dimethylacetamide-ethanol (EtOH) (76:19:5), and the pH was adjusted to >5 by the addition of NaOH. Compound 12 was formulated to 7.5 mg/ml in PEG 300-propylene glycol (PG)-water (55:25:20), and the pH was adjusted to >5 by the addition of NaOH.

in vitro = in vitro ADME; details: mouse plasma, 1 and 10 µg/ml, ultrafiltration; read-out: Mouse PPB (converted)
Experimental: Compounds were added to 1.5-ml aliquots of mouse plasma at concentrations of 1 and 10 µg/ml and then incubated in a shaking water bath at 37°C for 15 min. Both samples were treated similarly, and a 0.5-ml aliquot was removed from each tube and added to the filter reservoir of Microcon centrifugal filter devices (Ultracel YM-30 with a molecular mass cutoff of 30 kDa). The devices were centrifuged at 1,000 × g for 10 min, and 100 μl of the filtrate was transferred to a 96-well plate and diluted 5-fold. Ten-microliter volumes of the samples were injected and analyzed with the LC-MS/MS system. All samples were analyzed in duplicate. Quantitation was based on the peak area ratio of the analyte over the internal standard, and all integrations were performed with peak areas by using Analyst version 1.4.1 (Applied Biosystems, Foster City, CA, USA). Plasma protein binding was calculated based on the following equation: Plasma Protein Binding (%)=(PeakAreaPlasma UltrafilrateSpiked−PeakAreaPlasmaFiltrate)/PeakAreaPlasma UltrafiltrateSpiked×100

[1] = target: M. tuberculosis LeuRS editing domain (Mycobacterium tuberculosis, UniProt P9WFV1); experiment: biochemical; format: binding
[2] = female, CD-1, mouse, iv, 15 mg/kg
[3] = mouse, po, 30 mg/kg, Terminal t1/2, mouse

Chain of M. tuberculosis LeuRS editing domain (P9WFV1 309-513): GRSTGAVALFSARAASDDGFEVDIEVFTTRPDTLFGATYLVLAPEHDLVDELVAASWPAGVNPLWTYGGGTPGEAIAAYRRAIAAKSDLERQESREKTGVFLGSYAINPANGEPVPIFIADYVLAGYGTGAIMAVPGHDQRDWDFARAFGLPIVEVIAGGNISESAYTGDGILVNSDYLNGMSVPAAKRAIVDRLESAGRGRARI
Chain of M. tuberculosis LeuRS (P9WFV1 whole entry): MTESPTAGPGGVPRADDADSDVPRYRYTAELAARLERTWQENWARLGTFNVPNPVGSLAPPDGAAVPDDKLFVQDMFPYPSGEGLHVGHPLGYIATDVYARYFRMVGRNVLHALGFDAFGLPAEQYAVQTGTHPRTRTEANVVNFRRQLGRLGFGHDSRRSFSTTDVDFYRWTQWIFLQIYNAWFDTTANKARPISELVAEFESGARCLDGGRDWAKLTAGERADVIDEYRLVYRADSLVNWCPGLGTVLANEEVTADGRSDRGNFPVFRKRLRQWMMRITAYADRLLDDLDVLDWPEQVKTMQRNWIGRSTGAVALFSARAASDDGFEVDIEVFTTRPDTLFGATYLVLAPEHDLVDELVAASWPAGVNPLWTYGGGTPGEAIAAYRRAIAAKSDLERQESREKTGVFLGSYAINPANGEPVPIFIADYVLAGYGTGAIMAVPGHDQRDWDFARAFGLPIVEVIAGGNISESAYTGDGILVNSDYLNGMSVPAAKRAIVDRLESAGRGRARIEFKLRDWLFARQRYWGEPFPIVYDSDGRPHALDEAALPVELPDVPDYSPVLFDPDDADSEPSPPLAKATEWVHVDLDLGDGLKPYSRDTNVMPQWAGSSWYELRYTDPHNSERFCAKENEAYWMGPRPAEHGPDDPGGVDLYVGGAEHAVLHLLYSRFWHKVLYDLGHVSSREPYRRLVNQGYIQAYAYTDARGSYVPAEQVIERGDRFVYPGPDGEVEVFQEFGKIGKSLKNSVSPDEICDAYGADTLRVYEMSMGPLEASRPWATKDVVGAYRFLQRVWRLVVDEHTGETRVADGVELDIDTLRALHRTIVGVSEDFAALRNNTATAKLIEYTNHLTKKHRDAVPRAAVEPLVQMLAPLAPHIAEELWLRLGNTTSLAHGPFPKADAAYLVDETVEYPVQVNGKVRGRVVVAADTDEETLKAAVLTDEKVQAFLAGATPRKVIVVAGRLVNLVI

CC[C@H]1OC(=O)[C@H](C)[C@@H](O[C@H]2C[C@@](C)(OC)[C@@H](O)[C@H](C)O2)[C@H](C)[C@@H](O[C@@H]2O[C@H](C)C[C@H](N(C)C)[C@H]2O)[C@](C)(O)C[C@@H](C)C(=O)[C@H](C)[C@@H](O)[C@]1(C)O [Erythromycin, erythromycin]
EC50 (HepG2 cells): > 150 µM
EC50 (SDHA in HepG2 cells): > 150 µM
EC50 (COX1 in HepG2 cells): > 150 µM

NCC1OB(O)c2ccccc21 (stereo not drawn) [AN3017]
MIC (M. tuberculosis H37Rv): 1.8 µg/mL (≈ 11 µM)
IC50 (M. tuberculosis LeuRS; read-out: IC50 M.tb LeuRS): 0.64 µM

CCOc1c(F)ccc2c1B(O)OC2CN (stereo not drawn) [Compound 7]
EC50 (Vero cells): > 50 µM
MIC M.tb H37Rv (M. tuberculosis H37Rv): ≥ 1.1 µg/mL
MIC (M. tuberculosis H37Rv): > 1.1 µg/mL
IC50 (M. tuberculosis LeuRS; read-out: IC50 M.tb LeuRS): 0.56 µM

CCOc1cc(Cl)cc2c1B(O)OC2CN (stereo not drawn) [Compound 5]
EC50 (Vero cells): 43 µM
MIC M.tb H37Rv (M. tuberculosis H37Rv): ≥ 1.1 µg/mL
MIC (M. tuberculosis H37Rv): 1.2 µg/mL (≈ 4.97 µM)
IC50 (M. tuberculosis LeuRS; read-out: IC50 M.tb LeuRS): 0.38 µM

CCOc1ccc(Cl)c2c1B(O)OC2CN (stereo not drawn) [Compound 4]
EC50 (Vero cells): > 50 µM
improvement of MIC values over compound 1 (M. tuberculosis H37Rv): more than 5 fold
MIC (M. tuberculosis H37Rv): 0.04 µg/mL (≈ 0.166 µM)
IC50 (M. tuberculosis LeuRS): 0.09 µM

CCOc1cccc2c1B(O)O[C@H]2CN [Compound 3]
EC50 (Vero cells): > 50 µM
IC50 (M. tuberculosis LeuRS; read-out: IC50 M.tb LeuRS): 21 µM

CCOc1ccc(F)c2c1B(O)OC2CN (stereo not drawn) [Compound 6]
EC50 (Vero cells): > 50 µM
improvement of MIC values over compound 1 (M. tuberculosis H37Rv): more than 5 fold
MIC (M. tuberculosis H37Rv): 0.05 µg/mL (≈ 0.222 µM)
IC50 (M. tuberculosis LeuRS; read-out: IC50 M.tb LeuRS): 0.11 µM

CCOc1ccc(CC)c2c1B(O)OC2CN (stereo not drawn) [Compound 9]
EC50 (Vero cells): > 50 µM
MIC (M. tuberculosis H37Rv): 0.29 µg/mL (≈ 1.23 µM)
IC50 (M. tuberculosis LeuRS; read-out: IC50 M.tb LeuRS): 0.31 µM

OB1OCc2ccccc21 [AN2679]
MIC (M. tuberculosis H37Rv): 7.5 µg/mL (≈ 56 µM)
IC50 (M. tuberculosis LeuRS; read-out: IC50 M.tb LeuRS): 21.3 µM

C[C@H]1c2cccc(O)c2C(=O)C2=C(O)[C@]3(O)C(=O)C(C(N)=O)=C(O)[C@@H](N(C)C)[C@@H]3[C@@H](O)[C@@H]21 [Doxycycline, doxycycline]
EC50 (HepG2 cells): 118 ± 35.5 µM
EC50 (SDHA in HepG2 cells): 109 ± 29 µM
EC50 (COX1 in HepG2 cells): 23.7 ± 6.4 µM

OCCCOc1cccc2c1B(O)OC2 [AN3016]
MIC M.tb H37Rv (M. tuberculosis H37Rv): 1.0 µg/mL (≈ 4.81 µM)
MIC (M. tuberculosis H37Rv): 1 µg/mL (≈ 4.81 µM)
IC50 (M. tuberculosis LeuRS; read-out: IC50 M.tb LeuRS): 3.5 µM

CCOc1ccc(Br)c2c1B(O)OC2CN (stereo not drawn) [Compound 11]
AUC(0-inf) (in vivo; [2]): 45800 ng·h/mL
Cmax (in vivo; [2]): 18000 ng/mL
MRT (in vivo; [2]): 3 h
Vd (in vivo; [2]): 0.968 L/kg
clearance (in vivo; [2]): 5.47 mL/min/kg
half-life (in vivo; female, CD-1, mouse, iv, 15 mg/kg, α-t1/2, mouse): 0.09 h
half-life (in vivo; female, CD-1, mouse, iv, 15 mg/kg, β-t1/2, mouse): 2.08 h
α-t1/2 % AUC (in vivo; mouse, 15 mg/kg): 2 % AUC
β-t1/2 % AUC (in vivo; mouse, 15 mg/kg): 98 % AUC
AUC(0-t) (in vivo; mouse, po, 30 mg/kg): 35900 ng·h/mL
Cmax (in vivo; mouse, po, 30 mg/kg): 7200 ng/mL
Tmax (in vivo; mouse, po, 30 mg/kg): 1 h
bioavailability (in vivo; mouse, po, 30 mg/kg): 39%
half-life (in vivo; [3]): 2.7 h
EC50 (Vero cells): > 50 µM
improvement of MIC values over compound 1 (M. tuberculosis H37Rv): more than 5 fold
MIC (M. tuberculosis H37Rv): 0.05 µg/mL (≈ 0.175 µM)
IC50 (M. tuberculosis LeuRS): 0.11 µM
fraction unbound (in vitro): 0.5
Kd [1]: 0.04 µM
No. of sites [1]: 1.02
ΔGap [1]: -10.0 kcal/mol
ΔHap [1]: -5.5 kcal/mol
−TΔSap [1]: -4.6 kcal/mol

O=C(N[C@H](CO)[C@H](O)c1ccc([N+](=O)[O-])cc1)C(Cl)Cl [Chloramphenicol, chloramphenicol]
EC50 (HepG2 cells): 110 ± 14.1 µM
EC50 (SDHA in HepG2 cells): > 150 µM
EC50 (COX1 in HepG2 cells): 31.4 ± 23.2 µM

CCOc1ccc(-c2ccccc2)c2c1B(O)OC2CN.Cl (stereo not drawn) [Compound 10, 3-(Aminomethyl)-7-ethoxy-4-phenylbenzo[c][1,2]oxaborol-1(3H)-ol hydrochloride]
EC50 (Vero cells): > 50 µM
MIC (M. tuberculosis H37Rv): 17 µg/mL
IC50 (M. tuberculosis LeuRS; read-out: IC50 M.tb LeuRS): 28 µM

CCOc1cccc2c1B(O)O[C@@H]2CN [Compound 2]
α-t1/2 % AUC (in vivo; mouse, 30 mg/kg): 5 % AUC
β-t1/2 % AUC (in vivo; mouse, 30 mg/kg): 95 % AUC
AUC(0-inf) (in vivo; mouse, iv, 30 mg/kg): 13800 ng·h/mL
Cmax (in vivo; mouse, iv, 30 mg/kg): 8900 ng/mL
MRT (in vivo; mouse, iv, 30 mg/kg): 2.1 h
Vd (in vivo; mouse, iv, 30 mg/kg): 2.12 L/kg
clearance (in vivo; mouse, iv, 30 mg/kg): 36.3 mL/min/kg
half-life (in vivo; mouse, iv, 30 mg/kg, α-t1/2, mouse): 0.06 h
half-life (in vivo; mouse, iv, 30 mg/kg, β-t1/2, mouse): 1.5 h
AUC(0-t) (in vivo; mouse, po, 30 mg/kg): 13200 ng·h/mL
Cmax (in vivo; mouse, po, 30 mg/kg): 3400 ng/mL
Tmax (in vivo; mouse, po, 30 mg/kg): 0.5 h
bioavailability (in vivo; mouse, po, 30 mg/kg): 96%
half-life (in vivo; [3]): 1.8 h
EC50 (Vero cells): > 50 µM
MIC (M. tuberculosis H37Rv): 0.13 µg/mL (≈ 0.628 µM)
IC50 (M. tuberculosis LeuRS; read-out: IC50 M.tb LeuRS): 0.13 µM
fraction unbound (in vitro): 0.94
No. of sites ([1]; ITC, 25°C, with AMP): 1.05
ΔGap ([1]; ITC, 25°C, with AMP): -7.4 kcal/mol
ΔHap ([1]; ITC, 25°C, with AMP): -1.1 kcal/mol
−TΔSap ([1]; ITC, 25°C, with AMP): -6.3 kcal/mol
Kd ([1]; ITC, 25°C, with AMP, read-out: Kd): 3.7 µM

CCOc1ccc(C)c2c1B(O)OC2CN (stereo not drawn) [Compound 8]
EC50 (Vero cells): > 50 µM
MIC (M. tuberculosis H37Rv): 0.04 µg/mL (≈ 0.181 µM)
IC50 (M. tuberculosis LeuRS; read-out: IC50 M.tb LeuRS): 0.2 µM
